Measured values reported in article PMC10815619, “Leveraging SARS-CoV-2 Main Protease (M^pro) for COVID-19 Mitigation with Selenium-Based Inhibitors” (International Journal of Molecular Sciences, 2024).
Where two headings read alike, the source gives them in different places.

Target: T1, SARS-CoV-2 M^pro (Severe acute respiratory syndrome coronavirus 2, UniProt P0DTD1)
T1 construct: covers ORF1ab polyprotein residues 3264–3569; N-terminal leader ending in the Mpro autocleavage site (SAVLQ*SGFRK) (N, cleaved yes); made in house; host or cells: Escherichia coli BL21 (DE3), pET100D-Topo vector
Experiment: Fluorescence-based cleavage assay with AFC-peptide substrate, IC50 against M^pro
Type: biochemical
Method: For the determination of half-maximal inhibitory concentrations (IC50) of inhibitors against M^pro, an AFC-Peptide substrate (SAE0180, Merck) was used for a fluorescence-based cleavage assay [66]. The assay was performed in half area 96-well, black, flat-bottomed microtiter plates (Corstar, Corning, Glendale, CA, USA) with a final volume of 125 μL. M^pro (final concentrations of 5–50 nM) was pre-incubated for 1 h at 25 °C with compounds at different concentrations in the assay buffer (PBS, pH 7.5). […] The readings for the different concentrations of the inhibitor compounds incubated with the substrate without M^Pro were measured as a blank. […] The results were plotted as dose inhibition curves using nonlinear regression with a variable slope to determine the IC50 values of inhibitor compounds using GraphPad Prism 9.0.

| Compound | IC50 [nM] | IC50 (recombinant M^pro 5-50 nM, 1 h pre-incubation at 25 °C, AFC-peptide substrate 12 μM, PBS pH 7.5, mean ± SD (n = 3), read-out: IC50 against M^pro) [nM] |
| --- | --- | --- |
| Cc1ccc(NC(=O)[Se]c2ccccc2)cc1 [Cmp. 3b] | 1040 ± 47 |  |
| Cc1cc(C)cc(NC(=O)[Se]Cc2ccc(S(N)(=O)=O)cc2)c1 [Cmp. 3c, Se-(4-Sulfamoylbenzyl) (3,5-Dimethylphenyl) Carbamoselenoate] |  | 704 |
